Assay results from PMC3071891 (Journal of inorganic biochemistry, 2010).
Like-named read-outs stand apart in the source and are kept apart here.

Tests used:
[1] = target: T1, Giardia lamblia fructose 1,6-bisphosphate aldolase (GlFBPA) (Giardia intestinalis, UniProt A8B2U2); assay: GlFBPA inhibition constants, steady-state kinetics
[2] = target: T1, Giardia lamblia fructose 1,6-bisphosphate aldolase (GlFBPA); settings: read-out: GlFBPA inhibition constant (Ki); inert substrate analog; ref [25]; cited from earlier work

T1 sequence (A8B2U2 whole entry): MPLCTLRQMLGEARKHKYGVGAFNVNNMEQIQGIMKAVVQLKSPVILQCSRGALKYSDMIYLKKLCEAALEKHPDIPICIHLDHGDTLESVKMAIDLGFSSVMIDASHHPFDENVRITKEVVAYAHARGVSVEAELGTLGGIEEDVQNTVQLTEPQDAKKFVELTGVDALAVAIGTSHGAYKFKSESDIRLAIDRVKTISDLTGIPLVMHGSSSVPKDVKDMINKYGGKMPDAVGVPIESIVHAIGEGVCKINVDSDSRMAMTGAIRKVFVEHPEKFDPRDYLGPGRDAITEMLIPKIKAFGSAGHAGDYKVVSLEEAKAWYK

Compound `O=c1c(O)cccn1CP(=O)(O)O` [Compound 1, N-phosphonomethyl-3-hydroxy-2-pyridone] has a Ki [1] of 1200 ± 200 µM.
For `O=C(COP(=O)(O)O)[C@@H](O)[C@@H](O)[C@H](O)COP(=O)(O)O` [TBP, tagatose 1,6-bisphosphate], the Ki [2] is listed as 1 µM.
